The record followed here is US4579848A, “5-substituted[1,2,4]triazolo[1,5-c]pyrimidin-2-amines” (American Cyanamid Company, priority 1984, dated 1986).

For experiment [1], the system named is immunologically stimulated human basophils. The experiment in a line: Inhibition of histamine release from immunologically stimulated human basophils. Format: cell-based. The following applies: Leukocyte, 1 h; human leukocytes challenged with anti-IgE or antigen, 60 minutes at 37° C.; linear regression; read-out: ED50 (the concentration in μM which causes a 50% inhibition of histamine release). As for the experimental part:
The novel compounds of this invention have been tested by the procedure of Lichtenstein, L. M. and Osler, A. G., J. Exp. Med., 120, 507-530 (1964), which evaluates the ability of compounds to inhibit mediator (histamine) release from immunologically stimulated human basophils.
Eighty milliliters of blood is withdrawn from subjects with known histamine release to anti-IgE, ragweed antigen or other specific allergen, using four 20 ml heparinized tubes. This 80 ml of blood is mixed with 20 ml of saline containing 0.6 g of dextrose and 1.2 g of dextran. The blood is allowed to sediment at room temperature in two 50 ml polycarbonate centrifuge tubes until a sharp interface develops between the red cells and plasma (60-90 minutes). The plasma (top) layer from each tube is withdrawn by pipet and transferred to respective 50 ml polycarbonate tubes. The plasma is centrifuged for 8 minutes at 110X g at 4° C. The supernatant is carefully poured off as completely as possible and the cell button is resuspended in 2-3 ml of Tris-A buffer using a siliconized Pasteur pipet. The resuspension is accomplished by drawing the liquid gently in and out of the pipet, with the tip below the liquid, until an even suspension of cells is obtained. Sufficient Tris-A buffer is then added to bring the volume in the tube to about 45 ml and the tube is centrifuged at 110X g for 8 minutes at 4° C. The supernatant is poured off and the cell button is resuspended and centrifuged as described above. The supernatant is poured off and the cell button is suspended in 2-3 ml of Tris-ACM buffer to make the final volume sufficient to allow addition to the reaction tubes.
Reaction tubes containing anti-IgE or antigens, either alone or with test compound in a total volume of 0.2 ml are prepared and placed in a 37° C. bath. The cells are warmed to 37° C. and frequently swirled to ensure an even suspension, while 1.0 ml aliquots are added to each reaction tube. The tubes are then incubated for 60 minutes at 37° C., vortexing the tubes gently every 15 minutes to keep the cells evenly suspended. When the reaction is complete, the tubes are centrifuged at 4° C. for 10 minutes at 1500 rpm to sediment the cells. One ml aliquots of supernatant are transferred to 12X 75 mm polyethylene tubes and 0.2 ml of 8% perchloric acid is added to each tube. Blanks and totals are included in each test. The blanks have cells and all reagents except antigen or anti-IgE. The totals contain 0.24 ml of 8% perchloric acid, one ml of cells and 0.2 ml of buffer. All samples are then centrifuged to remove the precipitate protein.
This automated method has been described by Siraganian, R. P., in Anal. Biochem., 57, 383 (1974) and J. Immunol. Methods, 7, 283 (1975) and is based on the manual method of Shore, P. A., et al., J. Pharmacol. Exp. Ther., 217, 182 (1959).
The automated system consists of the following Technicon Autoanalyzer II components: Sampler IV, Dual-Speed Proportioning Pump III, Fluoronephelometer with a narrow pass primary filter 7-60 and a secondary filter 3-74, Recorder, and Digital Printer. The manifold used is the one described by Siraganian vide supra, with the following modifications: the dialyzer is omitted; all pumping tubes pass through a single proportioning pump with large capacity and twice the volume of sample is taken for analysis.
The automated chemistry consists of the following steps: Extraction from alkaline saline into butanol, back extraction into dilute hydrochloric acid by addition of heptane, reaction of histamine with o-phthaldialdehyde(OPT) at high pH and conversion of the OPT adduct to a stable fluorophore with phosphoric acid. The reaction product is then passed through the fluorometer. The full scale response is adjusted to 50 ng histamine base with a threshold sensitivity of approximately 0.5 ng.
The instrument blank (wash) is subtracted from the ng histamine of each sample. […]

Experiment [2] has as its system female Hartley-strain guinea pigs. The experiment in a line: Passive Anaphylaxis Test. The arrangement: key: If the Fisher test is significant, the compound is considered active; If the rank sum test is significant, the compound is considered to have weak activity. Format: in vivo, guinea pig. As to conditions: oral, one hour before ovalbumin challenge; standard dose 50 mg/kg; ten animals. Here is the method:
At -48 hours (relative to antigen challenge at time 0), 2 ml of saline containing 0.2-0.05 IgG hyperimmune serum (depending on batch of antibody used) was injected intraperitoneally (i.p.) into 250-300 g female Hartley-strain guinea pigs. One hour before challenge, the test compound is given to ten animals orally at 4 ml/kg of a suspension in 0.5% carboxymethylcellulose. The standard dose is 50 mg/kg. Ten control animals receive the vehicle only. The challenge consists of an intravenous injection of 0.25-2.0 mg of ovalbumin in one ml of saline. The time to the first observable symptom of anaphylaxis (normally this is a scratching of the nose) and the time to loss of righting reflex are recorded for each animal. Thirty minutes after the challenge the numbers of deceased and living animals are also recorded.
The treated and control groups are compared by a Mann-Whitney rank sum test for the times to symptom and times to collapse. In addition, a Fisher's exact test is done on the number of collapsed vs. noncollapsed for control and treated groups. If the Fisher test is significant, the compound is considered active. If the rank sum test is significant, the compound is considered to have weak activity.

As for `CC(=O)Nc1nc2ccnc(-c3cccc(C(F)(F)F)c3)n2n1`, the IC50 in experiment [1] worked out at 20 µM.
`OC(CCl)CNc1nc2ccnc(-c3cccc(C(F)(F)F)c3)n2n1` (centres unmarked) [1-Chloro-3-[[5-[3-(trifluoromethyl)phenyl][1,2,4]triazolo[1,5-c]pyrimidin-2-yl]amino]-2-propanol]: the IC50 in experiment [1] came to 9.5 µM.
Still for that read-out and setting: next, `CN(C)C(=O)c1cccc(-c2nccc3nc(N)nn23)c1` [3-(2-Amino[1,2,4]triazolo[1,5-c]pyrimidin-5-yl)-N,N--dimethylbenzamide]: 11 µM.
On the same count and under the same terms, next, `Nc1nc2ccnc(-c3cccc(C=O)c3)n2n1` [3-(2-Amino[1,2,4]triazolo[1,5-c]pyrimidin-5-yl)benzaldehyde]: 0.8 µM; `CCOC(=O)c1cccc(-c2nccc3nc(N)nn23)c1` [3-(2-amino[1,2,4]triazolo[1,5-c]pyrimidin-5-yl)benzoic acid, ethyl ester]: 11 µM; `CCOC(=O)c1ccc(-c2nccc3nc(N)nn23)cc1` [4-(2-amino[1,2,4]triazolo[1,5-c]pyrimidin-5-yl)benzoic acid, ethyl ester]: 16 µM.
`Nc1nc2ccnc(-c3ccccn3)n2n1` [5-(2-pyridinyl)[1,2,4]triazolo[1,5-c]pyrimidin-2-amine]: the “activity in passive anaphylaxis test (Fisher's exact test on collapsed vs. noncollapsed)” value in experiment [2] is “active”.
`C#Cc1cccc(-c2nccc3nc(N)nn23)c1` [5-(3-Ethynylphenyl)[1,2,4]triazolo[1,5-c]pyrimidin-2-amine]: the IC50 in experiment [1] came out at 14 µM.
The same measure, in the same setting: next, `Cc1cccc(-c2nccc3nc(N)nn23)c1` [5-(3-Methylphenyl)[1,2,4]triazolo[1,5-c]pyrimidin-2-amine]: 7.8 µM.
Same read-out and setting: next, `Nc1nc2ccnc(-c3cccc(Br)c3)n2n1` [5-(3-bromophenyl)[1,2,4]triazolo[1,5-c]pyrimidin-2-amine]: 3.3 µM.
Regarding `Nc1nc2ccnc(-c3cccc(Cl)c3)n2n1` [5-(3-chlorophenyl)[1,2,4]triazolo[1,5-c]pyrimidin-2-amine], the IC50 in experiment [1] was 4.3 µM.
The same measure, in the same setting: next, `Cc1cnccc1-c1nccc2nc(N)nn12` [5-(3-methyl-4-pyridinyl)[1,2,4]triazolo[1,5-c]pyrimidin-2-amine]: 3.8 µM; `Nc1nc2ccnc(-c3cccc([N+](=O)[O-])c3)n2n1` [5-(3-nitrophenyl)[1,2,4]triazolo[1,5-c]pyrimidin-2-amine]: 3.8 µM.
As to `Nc1nc2ccnc(-c3cccnc3)n2n1` [5-(3-pyridinyl)[1,2,4]triazolo[1,5-c]pyrimidin-2-amine], the IC50 in experiment [1] is 49.4 µM.
For `Nc1nc2ccnc(-c3cc[n+]([O-])cc3)n2n1` [5-(4-Pyridinyl)[1,2,4]triazolo[1,5-c]pyrimidin-2-amine, pyridine-1-oxide], the IC50 in experiment [1] was determined as 4.9 µM.
Same read-out and setting: next, `Nc1nc2ccnc(-c3ccc(F)cc3)n2n1` [5-(4-fluorophenyl)[1,2,4]triazolo[1,5-c]pyrimidin-2-amine]: 31 µM; `Nc1nc2ccnc(-c3ccncc3)n2n1` [5-(4-pyridinyl)[1,2,4]triazolo[1,5-c]pyrimidin-2-amine]: 33 µM; `Nc1nc2ccnc(-c3cc(C(F)(F)F)cc(C(F)(F)F)c3)n2n1` [5-[3,5-bis(trifluoromethyl)phenyl][1,2,4]triazolo[1,5-c]pyrimidin-2-amine]: 0.7 µM.
The same measure, in the same setting: next, `Nc1nc2ccnc(-c3cccc(C(Cl)Cl)c3)n2n1` [5-[3-(dichloromethyl)phenyl][1,2,4]triazolo[1,5-c]pyrimidin-2-amine]: 1.2 µM.
The same measure, in the same setting: next, `Nc1nc2ccnc(-c3cccc(OC(F)F)c3)n2n1` [5-[3-(difluoromethoxy)phenyl][1,2,4]triazolo[1,5-c]pyrimidin-2-amine]: 3 µM.
In the case of `Nc1nc2ccnc(-c3cccc(C(F)(F)F)c3)n2n1` [5-[3-(trifluoromethyl)phenyl][1,2,4]triazolo[1,5-c]pyrimidin-2-amine], in experiment [1], the IC50 amounted to 2.7 µM.
In the case of `Cc1cc2nc(N)nn2c(-c2cccc(C(F)(F)F)c2)n1` [7-methyl-5-[3-(trifluoromethyl)phenyl][1,2,4]triazolo[1,5-c]pyrimidin-2-amine], in experiment [1], the IC50 was found to be 100 µM.
On to `Cc1cnc(-c2cccc([N+](=O)[O-])c2)n2nc(N)nc12` [8-Methyl-5-(3-nitrophenyl)[1,2,4]triazolo[1,5-c]pyrimidin-2-amine], for which the IC50 in experiment [1] worked out at 8.7 µM.
Still for that read-out and setting: next, `Cc1cnc(-c2cccc(C(F)(F)F)c2)n2nc(N)nc12` [8-Methyl-5-[3-(trifluoromethyl)phenyl][1,2,4]triazolo[1,5-c]pyrimidin-2-amine]: 5.6 µM.
Regarding `CNc1nc2ccnc(-c3cccc(C(F)(F)F)c3)n2n1` [N-Methyl-5-[3-trifluoromethyl)phenyl][1,2,4]triazolo[1,5-c]pyrimidin-2-amine], the IC50 in experiment [1] is 16 µM.
Turning to `Cc1ccc(S(=O)(=O)Nc2cccc(-c3nccc4nc(N)nn34)c2)cc1` [N-[3-(2-Amino[1,2,4]triazolo[1,5-c]pyrimidin-5yl)phenyl]-4-methylbenzenesulfonamide], the IC50 in experiment [1] amounted to 1.5 µM.
The same measure, in the same setting: next, `CC(=O)Nc1nc2ccnc(-c3cccc(NS(=O)(=O)c4ccc(C)cc4)c3)n2n1` [N-[5-[3-[[(4-Methylphenyl)sulfonyl]amino]phenyl]-[1,2,4]triazolo[1,5-c]pyrimidin-2-yl]acetamide]: 1.7 µM; `CC(=O)Nc1nc2c(C)cnc(-c3cccc([N+](=O)[O-])c3)n2n1` [N-[8-Methyl-5-(3-nitrophenyl)[1,2,4]triazolo[1,5-c]pyrimidin-2-yl]acetamide]: 11 µM.
For `CC(=O)Nc1nc2c(C)cnc(-c3cccc(NS(=O)(=O)c4ccc(C)cc4)c3)n2n1` [N-[8-Methyl-5-[3-[[4-methylphenyl)sulfonyl]amino]phenyl][1,2,4]triazolo[1,5-c]pyrimidin-2-yl]acetamide], in experiment [1], the IC50 was determined as 34.4 µM.
